Results from patent publication US8293700B2, “Anti-bacterial composition especially for controlling gram-negative bacteria, comprising a peptide and an advantageously hydrophobic anti-bacterial agent” (Cellectis, priority 2003, dated 2012).
Where no end group is shown, it is not given here.

Columns and labels:
[1] = test system: Gram-negative bacterium (E. coli, P. aeruginosa); experiment: Classification of DPVs by internalization level in the two bacterial strains; type: cell-based; details: for Internalization properties in prokaryotic cells (Gram-negative bacteria): compared with the eukaryotic cell; for Classification of DPVs: level of internalization: DPV-Bodipy conjugates, accumulation in bacterial cytoplasm, E. coli and P. aeruginosa
Description: (§1) The bacteria in an exponential phase of culture were centrifuged and washed three times with the 10 mM, pH7.4 sodium phosphate buffer (NAPB buffer). The bacterial concentration was adjusted to 1×10^6 cfu/ml (colony-forming units) in the NAPB buffer. 50 μl of the bacterial suspension was deposited on a poly-L-Lysine slide. After 30 minutes incubation at 37° C. in a humid chamber, the bacteria immobilized on the slide were rinsed three times with the NAPB buffer. A 50 μl solution of DPV-Bodipy or DPV-TMR conjugate or control product was, deposited on the bacteria. After incubation for 30 minutes at 37° C. in a humidity chamber and away from light, the slides were rinsed three times with the NAPB buffer. The bacteria may be fixed on the slide by incubating 20 minutes at 37° C., away from light. A drop of 50% PBS/Glycerol was deposited on the slide and covered by a cover glass. After sealing the cover glass on the slide, bacterial fluorescence was observed under a Leica epifluorescence optical microscope (40× or 63× immersion lens). The images were taken with a digital Nikon Coolpix camera with maximum zoom and a 0.63× adapter. A more detailed analysis was performed with a confocal Bio-rad MRC 600 microscope (BIO-RAD Microscience Ltd., Hemel Hempstead, England), provided with an inverse optical microscope and an ×100 immersion lens. The bacteria were visualized by their fluorescence after excitation with a krypton/argon laser. Several sections of 0.1-0.2 μm bacteria were made.
Generally, the internalization of DPV is almost identical for the two bacterial strains that were studied.

[2] = test system: Escherichia coli ATCC 25922; experiment: Internalization of DPV fluorescent conjugates in E. coli (epifluorescence microscopy); type: cell-based; details: tested as Bodipy conjugate, 1 μM, 30 minutes at 37° C., non-fixed bacteria
Description: as §1
The immobilized bacteria on a poly-L-Lysine slide were incubated with 1 μM of DPV-Bodipy conjugate for 30 minutes at 37° C.
The E. coli bacteria were incubated for 30 minutes at 37° C. with 1 μM of DPV-Bodipy conjugate, as described in paragraph I.8.a. The internalization of fluorescent DPV-Bodipy conjugates in the non-fixed bacteria was visualized under an epifluorescence microscope. […] With the DPV11 and DPV12 peptides (FIGS. 31 and 3J), heterogeneous fluorescence levels in one single bacterial population was obtained. The internalization properties of these peptides were weaker. […] (FIG. 3L).
The internalization of the DPV3 TMR conjugate was evaluated on E. coli bacteria immobilized on a poly-L-Lysine slide or in suspension. The bacteria were incubated with 1 μM of DPV3-TMR conjugate or the Cyst-TMR control for 30 minutes at 37° C., and then either fixed or not on the slide before visualization in an epifluorescence optical microscope.

eukaryotic cells = details: cited from earlier work; for Localization in the eukaryotic cells: chemically coupled to the peroxydase protein or IgG, WO 01/64738
[3] = test system: Pseudomonas aeruginosa ATCC 27853; experiment: Internalization of DPV-Bodipy conjugates in P. aeruginosa (epifluorescence microscopy); type: cell-based; details: tested as Bodipy conjugate, 1 μM, 30 minutes at 37° C.
Description: as §1, with “A more detailed analysis was performed with a confocal Bio-rad MRC 600 microscope (BIO-RAD Microscience Ltd., Hemel Hempstead, England), provided with an inverse optical microscope and an ×100 immersion lens.” left out, “Several sections of 0.1-0.2 μm bacteria were made.” left out

P. aeruginosa = experiment: Confocal microscopy localization in P. aeruginosa; type: cell-based, Pseudomonas aeruginosa; details: 3 μM, 37° C., 30 mins., bacteria fixed
Description: as §1, with “A more detailed analysis was performed with a confocal Bio-rad MRC 600 microscope (BIO-RAD Microscience Ltd., Hemel Hempstead, England), provided with an inverse optical microscope and an ×100 immersion lens.” left out, “Several sections of 0.1-0.2 μm bacteria were made.” left out

E. coli ATCC 25922 = experiment: Chessboard method, DPV peptide and erythromycin, E. coli; type: cell-based, Escherichia coli; details: MH medium, 18 hours at 37° C.
Description: The dilution ranges were prepared according to a geometric progression of ration 2. 25 μl of the product solutions in MH medium with a concentration four times higher than the desired final concentration or 25 μl of the MH medium (for the lines 0), were distributed in the wells according to the chart below (Table 2), in order to obtain a final volume of 50 μl per well: An isolated colony of the bacterium E. coli ATCC 25922 or P. aeruginosa ATCC 27853 was placed in suspension in 3 to 5 ml of the MH culture medium and incubated at 37° C. for one night, while stirring. From this night culture, a culture in exponential growth phase of the strain was made; the MH medium was seeded at 1/50 é with the night culture and incubated for two hours at 37° C., while stirring. The bacterial concentration was adjusted to 5×10^5-10 s cfu/ml (colony-forming units) in the MH medium. […] The CMI was expressed in μg/ml (mg/1). […] An index below or equal to 0.5 indicates a synergy, an index above 2, an antagonism.

Substance | Internalization properties in prokaryotic cells (Gram-negative bacteria) [1] | Internalization in E. coli (description of FIG. 3) [2] | Internalization properties in the eukaryotic cell (eukaryotic cells) | Classification of DPVs: level of internalization [1] | Localization in the eukaryotic cells (eukaryotic cells) | Internalization in P. aeruginosa compared with E. coli (FIG. 5) [3] | Localization of Bodipy conjugate in P. aeruginosa (confocal, FIG. 6) (P. aeruginosa) | CMI, product alone (E. coli ATCC 25922)
Ala Lys Thr Gly Lys Arg Lys Arg Ser Gly (AKTGKRKRSG; C-terminal Cys added; listed as Homo sapiens) [DPV11] | same property | weaker | do not have any internalization properties | – | – | – | – | –
Arg Lys Lys Arg Arg Arg Glu Ser Arg Arg Ala Arg Arg Ser Pro Arg His Leu (RKKRRRESRRARRSPRHL; C-terminal Cys; listed as Homo sapiens) [DPV3.10] | – | highly penetrating | – | elevated internalization | cytoplasmic localization peptides | – | – | –
Asn Pro Gly Val Ser Thr Val Val Leu Gly Ala Tyr Asp Leu Arg Arg Arg Glu Arg Gin Ser Arg (NPGVSTVVLGAYDLRRRERQSR; N-terminal Cys; listed as Homo sapiens) [DPV19] | same property | did not penetrate into the bacteria | do not have any internalization properties | – | – | – | – | –
Gin Gly Lys Ser Lys Arg Glu Lys Lys Asp Arg Val Phe (QGKSKREKKDRVF; C-terminal Cys; listed as Homo sapiens) [DPV12] | same property | weaker | do not have any internalization properties | – | – | – | – | –
Gly Ala Tyr Asp Leu Arg Arg Arg Glu Arg Gin Ser Arg Leu Arg Arg Arg Glu Arg Gin Ser Arg (GAYDLRRRERQSRLRRRERQSR; N-terminal Cys; listed as Homo sapiens) [DPV15b] | – | – | – | weak internalization | nuclear localization peptides | – | – | –
Gly Arg Pro Arg Glu Ser Gly Lys Lys Arg Lys Arg Lys Arg Leu Lys Pro (GRPRESGKKRKRKRLKP; C-terminal Cys; listed as Homo sapiens) [DPV6] | – | highly penetrating | – | medium internalization | cytoplasmic localization peptides | more internalizing in P. aeruginosa | – | –
Gly Lys Arg Lys Lys Lys Gly Lys Leu Gly Lys Lys Arg Asp Pro (GKRKKKGKLGKKRDP; C-terminal Cys; listed as Homo sapiens) [DPV7] | – | – | – | medium internalization | cytoplasmic localization peptides | – | – | –
Gly Lys Arg Lys Lys Lys Gly Lys Leu Gly Lys Lys Arg Pro Arg Ser Arg (GKRKKKGKLGKKRPRSR; C-terminal Cys; listed as Homo sapiens) [DPV7b] | – | – | – | medium internalization | cytoplasmic localization peptides | more internalizing in P. aeruginosa than in E. coli | able to pass through the external membrane | –
Leu Arg Arg Glu Arg Gin Ser Arg Leu Arg Arg Glu Arg Gin Ser Arg (LRRERQSRLRRERQSR; C-terminal Cys; listed as Homo sapiens) [DPV15] | – | highly penetrating | – | medium internalization | nuclear localization peptides | – | – | –
RKKRRRESRKKRRRES [DPV3] | – | highly penetrating | – | elevated internalization | cytoplasmic localization peptides | – | able to pass through the external membrane | 128 µg/mL
Val Lys Arg Gly Leu Lys Leu Arg Gin Lys Tyr Asn Lys Arg Ala Met Asp Tyr (VKRGLKLRQKYNKRAMDY; N-terminal Cys added; listed as Homo sapiens) [DPV1121] | – | – | – | weak internalization | nuclear localization peptides | – | – | –
Val Lys Arg Gly Leu Lys Leu Arg His Val Arg Pro Arg Val Thr Arg Met Asp Val (VKRGLKLRHVRPRVTRMDV; N-terminal Cys added; listed as Homo sapiens) [DPV1047] | – | – | – | weak internalization | nuclear localization peptides | – | – | –
